Test results published in PMC9299836 (eLife, 2022).
Where “and” joins values, the source holds several entries; their conditions need not be identical. Equal values may be shown once.

How the values were obtained:
[1] = molecular target: mGluR2 (Mus musculus, UniProt Q14BI2, INS715F); assay: Live-cell FRET, azi-ECL2 (7TM domain, extracellular loop 2) sensor in HEK293T cells; conditions: for Mean normalized azi-ECL2 FRET response: glutamate + 0.5μM modulator, maximal response normalized to 1mM glutamate;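 for all read-outs here: Cy3/Cy5 click-labeled sensor, whole-membrane ROIs per cell, apparent FRET after bleed-through correction, ΔFRET as treatment minus pre-treatment signal, at room temperature, at least three biological replicates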
mGluR2 (Mus musculus, UniProt Q14BI2, INS715F), sequence (Q14BI2 with tags, fused parts or gaps INS715F): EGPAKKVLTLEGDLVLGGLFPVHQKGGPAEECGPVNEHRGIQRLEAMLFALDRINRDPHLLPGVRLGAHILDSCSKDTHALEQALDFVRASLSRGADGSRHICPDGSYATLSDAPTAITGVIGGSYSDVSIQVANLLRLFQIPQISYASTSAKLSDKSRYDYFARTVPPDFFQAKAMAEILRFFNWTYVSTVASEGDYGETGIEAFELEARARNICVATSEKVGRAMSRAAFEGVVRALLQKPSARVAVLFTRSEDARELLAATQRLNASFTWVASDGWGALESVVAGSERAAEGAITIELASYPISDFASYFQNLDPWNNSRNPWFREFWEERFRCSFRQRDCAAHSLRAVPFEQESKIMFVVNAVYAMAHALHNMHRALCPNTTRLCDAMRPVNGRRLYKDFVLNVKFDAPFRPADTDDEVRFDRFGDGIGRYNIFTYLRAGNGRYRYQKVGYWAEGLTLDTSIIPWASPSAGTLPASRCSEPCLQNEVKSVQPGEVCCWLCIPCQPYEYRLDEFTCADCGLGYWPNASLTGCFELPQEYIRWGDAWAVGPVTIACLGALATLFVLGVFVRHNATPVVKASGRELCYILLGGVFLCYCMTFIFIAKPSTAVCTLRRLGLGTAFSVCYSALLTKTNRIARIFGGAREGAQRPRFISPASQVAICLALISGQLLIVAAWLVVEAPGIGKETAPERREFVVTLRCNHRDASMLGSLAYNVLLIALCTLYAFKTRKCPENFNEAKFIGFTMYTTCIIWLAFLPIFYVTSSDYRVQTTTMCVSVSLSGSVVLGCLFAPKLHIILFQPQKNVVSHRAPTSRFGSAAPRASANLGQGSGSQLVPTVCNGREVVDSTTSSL

[2] = molecular target: mGluR2 (Mus musculus, UniProt Q14BI2, A548F); assay: Live-cell FRET, azi-CRD (cysteine-rich domain) sensor in HEK293T cells; conditions: for Mean normalized FRET response, azi-CRD PAM DRC: glutamate + 0.5μM JNJ-42153605, maximal response normalized to 1mM glutamate
mGluR2 (Mus musculus, UniProt Q14BI2, A548F), sequence (Q14BI2 19-872 A548F): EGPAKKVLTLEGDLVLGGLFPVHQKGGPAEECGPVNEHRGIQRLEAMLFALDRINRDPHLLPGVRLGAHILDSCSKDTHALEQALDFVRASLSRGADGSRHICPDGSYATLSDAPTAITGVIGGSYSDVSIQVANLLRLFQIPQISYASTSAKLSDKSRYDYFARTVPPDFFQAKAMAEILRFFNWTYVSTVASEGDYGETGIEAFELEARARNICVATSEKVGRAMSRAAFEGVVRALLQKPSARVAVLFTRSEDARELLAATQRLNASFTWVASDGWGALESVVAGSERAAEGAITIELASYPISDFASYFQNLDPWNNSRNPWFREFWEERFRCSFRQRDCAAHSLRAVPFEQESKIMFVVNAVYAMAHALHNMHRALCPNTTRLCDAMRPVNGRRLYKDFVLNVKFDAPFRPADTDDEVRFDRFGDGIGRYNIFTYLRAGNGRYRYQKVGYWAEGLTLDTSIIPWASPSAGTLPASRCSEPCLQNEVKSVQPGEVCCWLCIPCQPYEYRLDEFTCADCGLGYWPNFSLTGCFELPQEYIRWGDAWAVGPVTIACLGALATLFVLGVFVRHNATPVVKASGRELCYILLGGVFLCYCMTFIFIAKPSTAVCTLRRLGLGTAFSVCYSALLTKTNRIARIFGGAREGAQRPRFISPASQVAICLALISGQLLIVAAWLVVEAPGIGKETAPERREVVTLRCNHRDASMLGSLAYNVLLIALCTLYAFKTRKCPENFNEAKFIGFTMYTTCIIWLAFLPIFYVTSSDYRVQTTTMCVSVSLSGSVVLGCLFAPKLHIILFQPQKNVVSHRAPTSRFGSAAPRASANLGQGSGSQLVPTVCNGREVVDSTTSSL

[3] = molecular target: T1, mGluR2 (Mus musculus, UniProt Q14BI2); assay: Live-cell FRET, SNAP-m2 (VFT domain) inter-subunit sensor in HEK293T cells; conditions: for SNAP-m2 FRET response (PAM DRC) / SNAP-m2 FRET response (PAM DRC), Mean: Glutamate + 0.5μM JNJ-42153605; for SNAP-m2 FRET response (PAM DRC): individual cells, normalized to 1mM glutamate;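 for all read-outs here: apparent FRET efficiency from whole-membrane ROIs of single cells, corrected for donor bleed-through and background, ΔFRET as treatment minus pretreatment signal, recorded at room temperature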
T1 sequence (Q14BI2 19-872): as the sequence (Q14BI2 19-872 A548F) above, with F530A counted along it

[4] = molecular target: T1, mGluR2; assay: Functional calcium imaging, SNAP-mGluR2 (no FLAG-tag) with chimeric G protein Gqo5 in HEK293T cells; format: cell-based; parameters: Full length mGluR2 construct with an amber codon (TAG) mutation of amino acid A548 (azi-CRD) or N-terminal SNAP-tag (SNAP-mGluR2); host or cells: HEK293T; conditions: modulator alone; precluded analysis of glutamate potency and efficacy
[5] = 0.5μM JNJ-42153605, ([1 mM glutamate + modulator] - [1 mM glutamate]) × 100

## FC(F)(F)c1c(N2CCC(c3ccccc3)CC2)ccn2c(CC3CC3)nnc12 [JNJ-42153605, 3-cyclopropylmethyl-7-(4-phenylpiperidin-1-yl)-8-trifluoromethyl[1,2,4]triazolo[4,3-a]pyridine]
[1]; [5]
  azi-ECL2 - ΔEfficacy, Mean ΔEfficacy: -1.362
[1]; 0.5μM modulator, (([modulator + glutamate]EC50 – [glutamate] EC50)/[glutamate] EC50) × 100
  Mean ΔPotency: -56.3563
[1]; 0.5μM modulator, single cells, (([modulator + glutamate]EC50 – [glutamate] EC50)/[glutamate] EC50) × 100
  ΔPotency, individual cell responses: -56.3361 and -69.1679 and -73.0287 and -52.3819 and -40.5992 and -58.985 and -50.7357 and -45.7659 and -53.2747 and -65.0568 and -56.2788 and -59.6269 and -60.7335 and -44.1256 and -58.5158 and -54.4905 and -58.9548
[1]; 0.5μM modulator, single cells, ([1 mM glutamate + modulator] - [1 mM glutamate]) × 100
  ΔEfficacy, individual cell responses: -2.941 and 0.7843 and -9.091 and 0.4875 and -2.828 and 1.987 and -3.4754 and -3.284 and -3.415 and -12.5737 and -5.278 and 16.4947 and 5.4247
[1]; azi-ECL2, 0.5 μM modulator
  Change in glutamate efficacy by FRET signal at ECL2: no change in efficacy
[1]; azi-ECL2, 1 mM glutamate + 0.5 μM modulator, normalized to 1 mM glutamate
  Mean max response (normalized max ΔFRET): 0.99
[1]; azi-ECL2 sensor, + 0.5 μM modulator
  Hill slope of glutamate titration: 0.97
[1]; log[Glutamate] (M) -3
  Mean normalized azi-ECL2 FRET response: 0.9864
[1]; log[Glutamate] (M) -4.1549
  Mean normalized azi-ECL2 FRET response: 0.9409
[1]; log[Glutamate] (M) -4.52288
  Mean normalized azi-ECL2 FRET response: 0.8615
[1]; log[Glutamate] (M) -5
  Mean normalized azi-ECL2 FRET response: 0.7669
[1]; log[Glutamate] (M) -5.39794
  Mean normalized azi-ECL2 FRET response: 0.6334
[1]; log[Glutamate] (M) -5.82391
  Mean normalized azi-ECL2 FRET response: 0.3885
[1]; log[Glutamate] (M) -6.52288
  Mean normalized azi-ECL2 FRET response: 0.08595
[1]; log[Glutamate] (M) -7
  Mean normalized azi-ECL2 FRET response: 0.01271
[1]; log[Glutamate] (M) -7.30103
  Mean normalized azi-ECL2 FRET response: 0
[1]; log[Glutamate] (M) -7.69897
  Mean normalized azi-ECL2 FRET response: 0
[2]; [5]
  azi-CRD - ΔEfficacy, Mean ΔEfficacy: 43.306
[2]; 0.5μM JNJ-42153605, single cells
  azi-CRD - ΔEfficacy, individual cell responses: 82.2727 and 42.4779 and 50.5102 and 41.4773 and 23.5294 and 12.5265 and 26.2467 and 67.4074
[2]; azi-CRD sensor, + 0.5 μM modulator
  Hill slope of glutamate titration: 0.84
[2]; azi-CRD sensor, Glutamate + 0.5μM JNJ-42153605, individual values (N=8)
  Live-cell FRET max response normalized to 1mM glutamate: 1.235 and 1.125 and 1.262 and 1.674 and 1.823 and 1.425 and 1.5051 and 1.415
[2]; azi-CRD, 1 mM glutamate + 0.5 μM modulator, normalized to 1 mM glutamate
  Mean max response (normalized max ΔFRET): 1.43
[2]; azi-CRD, 0.5μM modulator, (([modulator + glutamate]EC50 – [glutamate] EC50)/[glutamate] EC50) × 100
  Mean ΔPotency: -59.6016
[2]; azi-CRD, 0.5μM modulator, calculated from individual cell responses
  ΔPotency, individual cell: -88.5847 and -77.2559 and -86.9416 and -84.6067 and -90.4873 and -15.0698 and -44.7131 and -29.6276 and 9.8556
[2]; log[Glutamate] (M) -3
  Mean normalized FRET response, azi-CRD PAM DRC: 1.433
[2]; log[Glutamate] (M) -4.1549
  Mean normalized FRET response, azi-CRD PAM DRC: 1.38
[2]; log[Glutamate] (M) -4.52288
  Mean normalized FRET response, azi-CRD PAM DRC: 1.273
[2]; log[Glutamate] (M) -5
  Mean normalized FRET response, azi-CRD PAM DRC: 1.071
[2]; log[Glutamate] (M) -5.39794
  Mean normalized FRET response, azi-CRD PAM DRC: 0.8185
[2]; log[Glutamate] (M) -5.82391
  Mean normalized FRET response, azi-CRD PAM DRC: 0.5065
[2]; log[Glutamate] (M) -6.52288
  Mean normalized FRET response, azi-CRD PAM DRC: 0.2306
[2]; log[Glutamate] (M) -7
  Mean normalized FRET response, azi-CRD PAM DRC: 0.112
[2]; log[Glutamate] (M) -7.30103
  Mean normalized FRET response, azi-CRD PAM DRC: 0.06166
[2]; log[Glutamate] (M) -7.69897
  Mean normalized FRET response, azi-CRD PAM DRC: 0
[3]; [5]
  SNAP-m2 - ΔEfficacy, Mean ΔEfficacy: 1.081
[3]; log[Glutamate] (M) -3
  SNAP-m2 FRET response (PAM DRC): -1.011
  SNAP-m2 FRET response (PAM DRC), Mean: -1.011
[3]; log[Glutamate] (M) -4.1549
  SNAP-m2 FRET response (PAM DRC): -1.026 and -1.036 and -0.9975 and -0.9514 and -0.995
  SNAP-m2 FRET response (PAM DRC), Mean: -1.001
[3]; log[Glutamate] (M) -4.52288
  SNAP-m2 FRET response (PAM DRC): -1.0364 and -1.036 and -1.011 and -0.8324 and -0.8825
  SNAP-m2 FRET response (PAM DRC), Mean: -0.9596
[3]; log[Glutamate] (M) -5
  SNAP-m2 FRET response (PAM DRC): -1.011 (2×) and -0.9177 and -0.5203 and -0.5436
  SNAP-m2 FRET response (PAM DRC), Mean: -0.8006
[3]; log[Glutamate] (M) -5.39794
  SNAP-m2 FRET response (PAM DRC): -0.9084 and -0.9097 and -0.7581 and -0.2676 and -0.3028
  SNAP-m2 FRET response (PAM DRC), Mean: -0.6293
[3]; log[Glutamate] (M) -5.82391
  SNAP-m2 FRET response (PAM DRC): -0.7293 and -0.6949 and -0.532 and -0.1338 and -0.1442
  SNAP-m2 FRET response (PAM DRC), Mean: -0.4469
[3]; log[Glutamate] (M) -6
  SNAP-m2 FRET response (PAM DRC): -0.07432 and -0.0721
  SNAP-m2 FRET response (PAM DRC), Mean: -0.07321
[3]; log[Glutamate] (M) -6.52288
  SNAP-m2 FRET response (PAM DRC): -0.2853 and -0.2653 and -0.1596 and 0 and -0.02884
  SNAP-m2 FRET response (PAM DRC), Mean: -0.1478
[3]; log[Glutamate] (M) -7
  SNAP-m2 FRET response (PAM DRC): -0.1024 and -0.08845 and 0 (3×)
  SNAP-m2 FRET response (PAM DRC), Mean: -0.03816
[3]; log[Glutamate] (M) -7.30103
  SNAP-m2 FRET response (PAM DRC): -0.03839 and 0 (4×)
  SNAP-m2 FRET response (PAM DRC), Mean: -0.00768
[3]; log[Glutamate] (M) -7.69897
  SNAP-m2 FRET response (PAM DRC): 0
  SNAP-m2 FRET response (PAM DRC), Mean: 0
[3]; SNAP-m2, 1 mM glutamate + 0.5 μM modulator, normalized to 1 mM glutamate
  Mean max response (normalized max ΔFRET): 1.01
[3]; SNAP-m2, 0.5μM modulator, (([modulator + glutamate]EC50 – [glutamate] EC50)/[glutamate] EC50) × 100
  Mean ΔPotency: -64.9475
[3]; SNAP-m2, 0.5μM modulator, ([1 mM glutamate + modulator] - [1 mM glutamate]) × 100
  Mean ΔEfficacy: 1.081
[3]; SNAP-m2 sensor, + 0.5 μM modulator
  Hill slope of glutamate titration: –0.95
[4]
  Effect of modulator itself on intracellular calcium flux: Direct activation of mGluR2
